Measured values reported in a melting point compilation (Tetko et al.; mined from patent text by program, amines drawn as free bases though some values may be those of a salt).

Row | SMILES | melting point [°C]
1 | COc1ccc2c(c1[N+](=O)[O-])CNCC(=O)N2 | 220 to 222
2 | CCOC(=O)/C=C/c1cc(-c2c(CC(=O)Nc3ccc(Cl)cc3C(F)(F)F)c(=O)oc3cc(Cl)c(C)cc23)ccc1F | 160 to 162
3 | O=C(O)COc1cc(F)c(N2CCOCC2)cc1C(=O)NCc1ccc(Br)cc1F | 180
4 | Cn1ncc2c(=O)n3c(nc21)SCC3(C)C | 188
5 | Cn1cc(-c2cc3cccnc3[nH]2)c2cc(OC3(C(N)=O)CCC3)ccc21 | 267 to 268
6 | NS(=O)(=O)c1cccc(-c2noc(-c3cnn4c(C5CC5)cc(-c5ccc(Cl)cc5)nc34)n2)c1 | 285
7 | CC(=O)Nc1nc2c(C)cnc(-c3cccc([N+](=O)[O-])c3)n2n1 | 245 to 247
8 | CC(=O)Nc1cc(Cl)c(Cl)cc1NC(=O)Nc1cc(C(F)(F)F)ccc1Cl | 262 to 264
9 | O=S(=O)(Nc1ccc2c(OCc3nc(-c4ccc(F)cc4)no3)cccc2c1)C(F)(F)F | 131 to 132
10 | Cc1cc(S(N)(=O)=O)ccc1-n1nc(C(F)(F)F)cc1-c1ccc(-c2ccco2)cc1 | 87 to 89
11 | CCOC(=O)c1sc(OCC)nc1-c1cccc(C(F)(F)F)c1 | 69 to 72
12 | COc1ccc2c(Cc3c(Cl)cncc3Cl)nnc(N3CCOCC3)c2c1 | 179 to 180
13 | CC(C)c1ccc(S(=O)(=O)n2c(COC(C)(C)C(=O)O)cc3cc(Cl)ccc32)cc1 | 60
14 | CC1(C)OCC[C@@H]2[C@H](C(O)CBr)C(=O)N21 (stereo not given in full) | 141 to 142
15 | COc1c2c(cc3ccc(=O)oc13)CC(OC)O2 (stereo not given) | 131 to 132
16 | COc1ccc(Nc2cc3c(cc2Nc2ccc(OC)cc2)C(=O)NC3=O)cc1 | 191 to 193
17 | O=C1CC(COC(c2ccccc2)(c2ccccc2)c2ccccc2)=NC=C1OCc1ccccc1 | 233 to 235
18 | CNC(=O)C1(CCCCCCCCO)CC2=C(C1)C(=O)C(OC)=C(OC)C2=O | 120 to 123
19 | C=C(Cl)C[C@H](CC(=O)O)C(=O)N[C@@H](CC1CCCCC1)[C@@H](O)[C@@H](O)CC(C)C | 193 to 196
20 | OCc1cc2ccsc2s1 | 85 to 87
21 | CC(=O)c1ccc(C2c3cc(NC(=O)CC(C)(C)C)c(C)c(C)c3OC2(C)C)cc1 (stereo not given) | 195 to 196
22 | CCOC(=O)c1nc(O)sc1C(C)=O | 105 to 108
23 | CC(C)(C)OC(=O)N[C@@H](Cc1cc(F)cc(F)c1)[C@H]1CO1 | 99

Next, values leading:

Row | melting point [°C] | SMILES
24 | 200 | O=c1[nH]c2ccc(CCN3CCN(c4ncnc5ccccc45)CC3)cc2o1
25 | 169 to 172 | CC(O)c1cc2c3ccccc3n(C)c(=O)n2n1 (stereo not given)
26 | 348 | O=c1[nH]c2ccc(-c3cc(=O)c4ccccc4o3)cc2o1
27 | 183 to 185 | CCOC(=O)c1ccc2nc3c(c(=O)n2c1)CSC3
28 | 195 to 230 | O=C1NC(=O)C(N2C(=O)c3ccccc3C2=O)CC1O (stereo not given)
29 | 74 | CC=CN1C(=O)CN(c2ccccc2)C1=S
30 | 99 to 100 | CNC(=S)Nc1ccccc1CC(=O)OC
31 | 150 to 152 | O=C(O)Cc1ccc2c(c1)[nH]c1ccccc12
32 | 66 to 68 | O=C1C(Cc2ccccc2)CCCCCC1Cc1ccccc1 (stereo not given)
33 | 188 to 189 | O=c1[nH]c2ccc(F)cc2s1
34 | 174 to 175 | CCOC(=O)c1ccc(-c2nnc(-c3ccccc3N)o2)cc1
35 | 173 to 174 | CCOC(=O)N1CCN(c2cn(Cc3ccccc3)c3cc(OC)ccc3c2=O)CC1
36 | 148 to 150 | CCCc1nc2c(N)nc3ccccc3c2n1CC(OCC)OCC
37 | 125 to 128 | CCOC(=O)N(C)CCCC1c2cccc3c2N(CC3)c2ccccc2N1C(C)=O (stereo not given)
38 | > 300 | O=C(Nc1ccccc1)OCc1cn(-c2cc3cc(C(=O)O)c(=O)[nH]c3cc2[N+](=O)[O-])cn1
39 | 196 to 198 | O=C(O)C1CCc2c(c3cccc(Br)c3n2C(=O)c2ccccc2)C1 (stereo not given)
40 | 99 to 101 | O=c1c2ccccc2cc2n1CCCCC2
